Data reported in ChEMBL document CHEMBL1135457 (J Med Chem, 2002).

What was measured:
Glucocorticoid receptor = target: T1, Glucocorticoid receptor (Homo sapiens, UniProt P04150); assay: Displacement of 10 nM [3H]dexamethasone from human Glucocorticoid receptor
T1 sequence (P04150 whole entry): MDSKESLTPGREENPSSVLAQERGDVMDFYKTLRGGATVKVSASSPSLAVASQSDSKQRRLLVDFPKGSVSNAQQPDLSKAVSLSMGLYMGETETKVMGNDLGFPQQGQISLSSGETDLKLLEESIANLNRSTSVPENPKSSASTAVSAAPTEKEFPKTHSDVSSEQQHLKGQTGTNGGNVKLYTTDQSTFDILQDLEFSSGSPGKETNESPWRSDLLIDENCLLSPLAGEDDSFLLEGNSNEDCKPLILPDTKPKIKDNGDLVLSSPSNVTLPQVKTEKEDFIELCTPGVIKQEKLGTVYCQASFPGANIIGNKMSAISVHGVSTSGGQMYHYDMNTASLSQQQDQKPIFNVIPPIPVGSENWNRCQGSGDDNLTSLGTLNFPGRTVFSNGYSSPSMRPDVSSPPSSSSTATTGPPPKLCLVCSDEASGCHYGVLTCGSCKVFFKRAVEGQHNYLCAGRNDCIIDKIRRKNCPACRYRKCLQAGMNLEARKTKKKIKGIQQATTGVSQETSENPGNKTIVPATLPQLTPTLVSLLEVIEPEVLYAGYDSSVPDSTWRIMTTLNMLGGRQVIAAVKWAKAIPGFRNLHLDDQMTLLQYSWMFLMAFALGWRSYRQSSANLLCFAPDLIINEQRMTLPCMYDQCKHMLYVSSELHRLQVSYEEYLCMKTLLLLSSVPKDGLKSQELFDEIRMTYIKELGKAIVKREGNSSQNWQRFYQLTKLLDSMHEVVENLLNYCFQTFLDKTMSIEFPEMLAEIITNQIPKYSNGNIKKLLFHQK

Progesterone receptor = target: T2, Progesterone receptor (Homo sapiens, UniProt P06401); assay: Displacement of radioligand from human Progesterone receptor
T2 sequence (P06401 whole entry): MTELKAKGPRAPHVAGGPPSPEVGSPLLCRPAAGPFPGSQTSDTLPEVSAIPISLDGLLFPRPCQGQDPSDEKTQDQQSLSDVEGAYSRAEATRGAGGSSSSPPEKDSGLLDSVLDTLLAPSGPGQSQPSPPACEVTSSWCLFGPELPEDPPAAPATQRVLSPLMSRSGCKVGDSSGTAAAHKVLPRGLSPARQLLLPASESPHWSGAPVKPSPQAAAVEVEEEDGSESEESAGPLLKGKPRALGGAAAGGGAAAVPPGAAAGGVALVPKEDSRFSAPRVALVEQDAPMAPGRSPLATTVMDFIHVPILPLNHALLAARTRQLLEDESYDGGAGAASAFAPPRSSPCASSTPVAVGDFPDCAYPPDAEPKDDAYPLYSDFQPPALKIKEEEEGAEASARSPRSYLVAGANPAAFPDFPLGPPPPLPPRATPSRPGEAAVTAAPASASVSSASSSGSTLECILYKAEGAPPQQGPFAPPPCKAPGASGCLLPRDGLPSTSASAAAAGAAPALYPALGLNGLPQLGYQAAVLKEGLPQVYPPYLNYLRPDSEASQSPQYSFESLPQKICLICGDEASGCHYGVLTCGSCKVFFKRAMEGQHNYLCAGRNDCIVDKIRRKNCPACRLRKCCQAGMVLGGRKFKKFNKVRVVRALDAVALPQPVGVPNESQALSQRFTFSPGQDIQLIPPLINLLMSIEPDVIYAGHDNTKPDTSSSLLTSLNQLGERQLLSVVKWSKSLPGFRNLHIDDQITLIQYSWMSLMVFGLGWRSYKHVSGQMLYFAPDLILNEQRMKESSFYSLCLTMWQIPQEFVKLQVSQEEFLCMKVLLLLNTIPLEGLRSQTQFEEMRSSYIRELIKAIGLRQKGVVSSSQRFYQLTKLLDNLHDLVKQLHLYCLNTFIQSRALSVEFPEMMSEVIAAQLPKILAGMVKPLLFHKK

[1] = target: T3, Estrogen receptor (Homo sapiens) (UniProt P03372); assay: Displacement of radioligand from human Estrogen receptor alpha, percent inhibition at 10 uM
T3 sequence (whole entry): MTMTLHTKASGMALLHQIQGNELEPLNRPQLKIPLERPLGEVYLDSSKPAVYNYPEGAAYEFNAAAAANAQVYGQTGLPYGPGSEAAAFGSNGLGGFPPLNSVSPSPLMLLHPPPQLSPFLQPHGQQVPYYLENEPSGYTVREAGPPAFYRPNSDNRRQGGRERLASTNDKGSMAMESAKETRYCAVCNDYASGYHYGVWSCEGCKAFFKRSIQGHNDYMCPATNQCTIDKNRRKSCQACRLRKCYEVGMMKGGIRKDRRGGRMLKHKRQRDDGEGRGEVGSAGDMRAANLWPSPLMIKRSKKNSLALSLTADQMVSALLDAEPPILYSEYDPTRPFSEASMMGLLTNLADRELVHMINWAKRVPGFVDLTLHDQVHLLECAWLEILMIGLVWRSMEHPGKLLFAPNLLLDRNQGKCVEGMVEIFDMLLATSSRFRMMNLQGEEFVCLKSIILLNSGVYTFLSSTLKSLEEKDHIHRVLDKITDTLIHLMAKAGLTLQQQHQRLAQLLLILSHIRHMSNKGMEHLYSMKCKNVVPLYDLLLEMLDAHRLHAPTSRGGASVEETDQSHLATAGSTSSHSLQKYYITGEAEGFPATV

Estrogen receptor beta = Estrogen receptor beta (Homo sapiens, UniProt Q92731); assay: Displacement of radioligand from human Estrogen receptor beta, percent inhibition at 10 uM
Estrogen receptor beta, sequence (Q92731 whole entry): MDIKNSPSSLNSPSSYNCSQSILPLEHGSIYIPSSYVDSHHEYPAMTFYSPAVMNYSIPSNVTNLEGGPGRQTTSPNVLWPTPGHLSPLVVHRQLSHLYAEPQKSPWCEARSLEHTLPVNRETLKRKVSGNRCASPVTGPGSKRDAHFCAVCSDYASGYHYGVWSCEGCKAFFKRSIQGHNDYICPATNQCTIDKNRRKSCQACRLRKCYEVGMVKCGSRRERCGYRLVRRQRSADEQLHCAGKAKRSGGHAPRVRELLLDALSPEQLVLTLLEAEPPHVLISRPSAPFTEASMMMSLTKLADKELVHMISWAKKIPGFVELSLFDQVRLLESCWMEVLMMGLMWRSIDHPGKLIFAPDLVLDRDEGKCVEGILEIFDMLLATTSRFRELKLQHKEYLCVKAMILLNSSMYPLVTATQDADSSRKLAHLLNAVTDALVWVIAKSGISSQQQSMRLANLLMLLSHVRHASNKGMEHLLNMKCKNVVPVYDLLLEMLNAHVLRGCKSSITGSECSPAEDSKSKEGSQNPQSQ

Ki (Progesterone receptor)	inhibition (Estrogen receptor beta)	Compound	Ki (Glucocorticoid receptor)	inhibition [1]
> 10000 nM	57%	CC#C[C@@]1(O)CC[C@@]2(Cc3ccccc3)c3ccc(O)cc3CC[C@@H]2C1	0.17 nM	50%
> 10000 nM	54%	O=C1CC[C@@]2(Cc3ccccc3)c3ccc(O)cc3CC[C@@H]2C1	5.96 nM	45%
–	–	CC#C[C@]1(O)CCC2C3CCC4=CC(=O)CC[C@]4(Cc4ccc(C)cc4)C3=CC[C@@]21C (some centres undefined)	0.1 nM	20%

Compound	Ki (Progesterone receptor)	inhibition (Estrogen receptor beta)	Ki (Glucocorticoid receptor)	inhibition [1]
Oc1ccc2c(c1)CC[C@@H]1C[C@@](O)(C#CCl)CC[C@@]21Cc1ccccc1	> 10000 nM	75%	0.1 nM	62%
